# Data as given in US12162867B2, “Inhibitors of RNA helicase DHX9 and uses thereof” (ACCENT THERAPEUTICS, INC., priority 2022, dated 2024).
# pEC50, pIC50: −log10 of the molar value. Like-named read-outs stand apart in the source and are kept apart here.
# Columns and labels:
# Type in all cases: cell-based
# LS411N cells = assay: DHX9 cellular proliferation assay (CellTiter-Glo), LS411N (CRC-MSI); details: Homo sapiens, LS-411N, read-out: LS411N (CRC-MSI-H) Antiproliferative IC50
# [1] = tested on: circBRIP1 in HCT116 cells; assay: DHX9 circBRIP1 cellular target engagement TaqMan Multiplex assay (qPCR); details: Homo sapiens, HCT-116, circBRIP1, HCT116 cells; * Taqman assay was used; read-out: DHX9 Cellular Target Engagement EC50
# NCI-H747 cells = assay: DHX9 cellular proliferation assay (CellTiter-Glo), NCI-H747 (CRC-MSS); details: Homo sapiens
# [2] = tested on: circBRIP1 in HCT116 cells; assay: DHX9 circBRIP1 cellular target engagement SYBR Green assay (qPCR); details: Homo sapiens, HCT-116, circBRIP1, HCT116 cells, read-out: DHX9 Cellular Target Engagement EC50
# [3] = NCI-H747, NCI-H747, performed at Pharmaron, read-out: H747 (CRC-MSS) Antiproliferative IC50
# [4] = LS411N, CRC-MSI-H, performed at Pharmaron
# [5] = NCI-H747, NCI-H747, CRC-MSS, performed at Pharmaron, read-out: H747 (CRC-MSS) Antiproliferative IC50
Compound,pIC50 (NCI-H747 cells; [3]),pEC50 ([2]; SyBr assay (marked ^+)),pIC50 (NCI-H747 cells; [5]),pEC50 ([2]; ^+ SyBr assay was used),"pIC50 (LS411N cells; LS411N, performed at Pharmaron)",pIC50 (LS411N cells; [4]),further results
CS(=O)(=O)Nc1cc(Br)cc(NC(=O)c2cc(-c3ncccn3)cs2)c1 [Example 25],,7.32,< 5.00,,,7.00,
CCS(=O)(=O)Nc1cc(Cl)cc(NC(=O)c2cc(-c3ncccn3)c(C)s2)c1 [Example 27],,7.30,< 5.00,,,6.93,
"CS(=O)(=O)Nc1cc(Br)cc(NC(=O)c2cnn(-c3ccccn3)c2)c1 [Example 36, N-(3-bromo-5-(methylsulfonamido)phenyl)-1-(pyridin-2-yl)-1H-pyrazole-4-carboxamide]",,6.50,,,,,"pIC50 (LS411N cells): 5.96; pIC50 (NCI-H747 cells; NCI-H747, read-out: H747 (CRC-MSS) Antiproliferative IC50): < 5.00"
"Cn1cc(C(=O)Nc2cc(Cl)cc(NS(C)(=O)=O)c2)cc1-c1ncccc1OCc1cncc(F)c1 [Example 174, N-(3-chloro-5-(methylsulfonamido)phenyl)-5-(3-((5-fluoropyridin-3-yl)methoxy)pyridin-2-yl)-1-methyl-1H-pyrrole-3-carboxamide]",,8.15,< 5.00,,,7.48,
CCOc1cnc(-c2cc(C(=O)Nc3cc(Cl)cc(NS(C)(=O)=O)c3)cn2C)nc1 [Example 172],,6.87,5.16,,,6.63,
CS(=O)(=O)Nc1cc(Br)cc(NC(=O)c2cnn(-c3ccc(N4CCOCC4)cn3)c2)c1 [Example 55],,6.84,< 5.00,,,5.97,
CS(=O)(=O)Nc1cc(Cl)cc(NC(=O)c2cc(-c3ncccn3)cs2)c1 [Example 26],,7.22,< 5.00,,,6.66,
CS(=O)(=O)Nc1cc(Cl)cc(NC(=O)c2cc(-c3ncccc3OCc3cccnc3)n(CC(F)(F)F)c2)c1 [Example 185],,7.13,5.08,,,6.86,
CS(=O)(=O)Nc1cc(Cl)cc(NC(=O)c2cnn(-c3ccc(N4CC5CCC(C4)O5)cn3)c2)c1 [Example 191],,6.36,< 5.00,,,< 5.00,
CN(C)C(=O)c1sc(C(=O)Nc2cc(Cl)cc(NS(C)(=O)=O)c2)cc1-c1ncccc1OCc1ccccc1 [Example 213],,7.13,< 5.00,,,6.76,
CS(=O)(=O)Nc1cc(Cl)cc(NC(=O)c2cnn(-c3ccccn3)c2)c1 [Example 37],,6.08,< 5.00,,,5.46,
CCOc1cnc(-n2cc(C(=O)Nc3cc(Cl)cc(NS(C)(=O)=O)c3)cc2C)nc1 [Example 208],,6.90,< 5.00,,,6.66,
CS(=O)(=O)Nc1cc(Cl)cc(NC(=O)c2cc(-c3ncccc3OCc3ccccc3)cs2)c1 [Example 29],,7.28,5.03,,,6.91,
CCc1cn2cc(C(=O)Nc3cc(Cl)cc(NS(C)(=O)=O)c3)ccc2n1 [Example 132],,< 5.00,< 5.00,,,< 5.00,
Cc1cc(C(=O)Nc2cc(Cl)cc(NS(C)(=O)=O)c2)cn1-c1ccc(N2CCN(C)C(=O)C2)cn1 [Example 94],,6.53,< 5.00,,,5.49,

# More lines, main results first:
pIC50 (NCI-H747 cells; [3]),pEC50 ([2]; SyBr assay (marked ^+)),pIC50 (NCI-H747 cells; [5]),pEC50 ([2]; ^+ SyBr assay was used),Compound,"pIC50 (LS411N cells; LS411N, performed at Pharmaron)",pIC50 (LS411N cells; [4]),further results
5.05,,,,CN1CC(Oc2cnc(-c3cc(C(=O)Nc4cc(Cl)cc(NS(C)(=O)=O)c4)cn3C)c(F)c2)C1 [Example 611],6.88,,pEC50 [1]: 7.69
5.36,,,7.02,Cc1cc(C(=O)Nc2cc(Cl)cc(NS(C)(=O)=O)c2)cn1-c1ccc(C(F)(F)F)cn1 [Example 443],6.45,,
5.16,,,7.58,Cc1cc(C(=O)Nc2cc(Cl)cc(NS(C)(=O)=O)c2)cn1-c1ccc(N2CCC2)cn1 [Example 397],7.33,,
< 5.00,,,7.04,CCOc1cnn(-c2cc(C(=O)Nc3cc(Cl)cc(NS(C)(=O)=O)c3)sc2C)c1 [Example 438],6.29,,
,7.39,< 5.00,,Cc1sc(C(=O)Nc2cc(Cl)cc(NS(C)(=O)=O)c2)cc1-c1ncccc1O [Example 227],,6.06,
< 5.00,,,7.24,"COc1cc(F)cnc1-c1cc(C(=O)Nc2cc(Cl)cc(NS(C)(=O)=O)c2)cn1C [Example 568, N-(3-chloro-5-methanesulfonamidophenyl)-5-(5-fluoro-3-methoxypyridin-2-yl)-1-methylpyrrole-3-carboxamide]",6.46,,
< 5.00,,,7.17,Cc1cc(C(=O)Nc2cc(Cl)cc(NS(C)(=O)=O)c2)cn1-c1ncc(N2CC(F)(F)C2)cn1 [Example 418],6.86,,
< 5.00,,,7.29,CS(=O)(=O)Nc1cc(Cl)cc(NC(=O)c2cnn(-c3ccc(N4CC5(COC5)C4)cc3OCc3cccc(F)c3)c2)c1 [Example 722],7.30,,
,7.46,< 5.00,,COc1cnc(-c2cc(C(=O)Nc3cc(Cl)cc(NS(C)(=O)=O)c3)sc2C)nc1 [Example 341],,6.91,
< 5.00,,,6.86,CS(=O)(=O)Nc1cc(Cl)cc(NC(=O)c2cnn(-c3c(F)cccc3OCc3cncc(F)c3)c2)c1 [Example 718],6.94,,
< 5.00,,,8.70,Cc1sc(C(=O)Nc2cc(Cl)cc(NS(C)(=O)=O)c2)cc1-c1ncccc1OCc1cncc(F)c1 [Example 621],8.06,,
,7.63,< 5.00,,CS(=O)(=O)Nc1cc(Cl)cc(NC(=O)c2cc(-c3ncccc3OCc3cnco3)cs2)c1 [Example 215],,6.93,
< 5.00,,,6.98,Cc1cc(C(=O)Nc2cc(Cl)cc(NS(C)(=O)=O)c2)cn1-c1ncccc1OCC1CC1 [Example 713],6.98,,
< 5.00,,,7.56,COCc1ccc(-n2cc(C(=O)Nc3cc(Cl)cc(NS(C)(=O)=O)c3)cc2C)nc1 [Example 447],6.96,,
< 5.00,,,7.26,CCOc1ccc(-c2cc(C(=O)Nc3cc(Cl)cc(NS(C)(=O)=O)c3)cn2C)nc1 [Example 572],6.84,,
< 5.00,,,6.97,COc1ccc(-c2cc(C(=O)Nc3cc(Cl)cc(NS(C)(=O)=O)c3)cn2C)nc1 [Example 573],6.99,,
,5.58,< 5.00,,CS(=O)(=O)Nc1cc(Cl)cc(NC(=O)c2cc(-c3ccc(F)cn3)n(CC(F)F)c2)c1 [Example 286],,6.88,
,7.27,< 5.00,,Cn1cc(C(=O)Nc2cc(Cl)cc(NS(C)(=O)=O)c2)cc1-c1ncccc1OCc1nccs1 [Example 279],,7.09,
,6.88,< 5.00,,Cc1cc(C(=O)Nc2cc(Cl)cc(NS(C)(=O)=O)c2)cn1-c1ccc(N2CCN(C(=O)C(C)C)CC2)cn1 [Example 283],,7.03,
< 5.00,,,6.95,CN1C(=O)N(c2csc(C(=O)Nc3cc(Cl)cc(NS(C)(=O)=O)c3)c2)C(=O)C1(C)C [Example 432],6.85,,
< 5.00,,,7.25,COCc1cnc(-c2cc(C(=O)Nc3cc(Cl)cc(NS(C)(=O)=O)c3)cn2C)nc1 [Example 690],6.74,,
,7.04,5.24,,CCOc1ccc(-c2csc(C(=O)Nc3cc(Cl)cc(NS(C)(=O)=O)c3)c2)nc1 [Example 339],,6.47,
